{"source": "patent US7790364B2", "about": "“Compositions and methods for high throughput screening of pharmacological chaperones” (The Board of Trustees of the Leland Stanford Junior …, priority 2006, dated 2010)", "format_in_all_cases": "cell-based", "key": {"[1]": {"biological_target": "T1, 4S-ΔF508 CFTR (Homo sapiens, UniProt P13569, DEL508-508/INS895[…])", "T1 construct": "antibodies against the CFTR C-terminus to test for complete open reading frame; 4 x S-tag (KETAAAKFERQHMDS) with GGGG spacers, in the 4th extracellular loop; expressed in transfected cells", "T1 sequence (P13569 with tags, fused parts or gaps DEL508-508/INS895[withheld])": "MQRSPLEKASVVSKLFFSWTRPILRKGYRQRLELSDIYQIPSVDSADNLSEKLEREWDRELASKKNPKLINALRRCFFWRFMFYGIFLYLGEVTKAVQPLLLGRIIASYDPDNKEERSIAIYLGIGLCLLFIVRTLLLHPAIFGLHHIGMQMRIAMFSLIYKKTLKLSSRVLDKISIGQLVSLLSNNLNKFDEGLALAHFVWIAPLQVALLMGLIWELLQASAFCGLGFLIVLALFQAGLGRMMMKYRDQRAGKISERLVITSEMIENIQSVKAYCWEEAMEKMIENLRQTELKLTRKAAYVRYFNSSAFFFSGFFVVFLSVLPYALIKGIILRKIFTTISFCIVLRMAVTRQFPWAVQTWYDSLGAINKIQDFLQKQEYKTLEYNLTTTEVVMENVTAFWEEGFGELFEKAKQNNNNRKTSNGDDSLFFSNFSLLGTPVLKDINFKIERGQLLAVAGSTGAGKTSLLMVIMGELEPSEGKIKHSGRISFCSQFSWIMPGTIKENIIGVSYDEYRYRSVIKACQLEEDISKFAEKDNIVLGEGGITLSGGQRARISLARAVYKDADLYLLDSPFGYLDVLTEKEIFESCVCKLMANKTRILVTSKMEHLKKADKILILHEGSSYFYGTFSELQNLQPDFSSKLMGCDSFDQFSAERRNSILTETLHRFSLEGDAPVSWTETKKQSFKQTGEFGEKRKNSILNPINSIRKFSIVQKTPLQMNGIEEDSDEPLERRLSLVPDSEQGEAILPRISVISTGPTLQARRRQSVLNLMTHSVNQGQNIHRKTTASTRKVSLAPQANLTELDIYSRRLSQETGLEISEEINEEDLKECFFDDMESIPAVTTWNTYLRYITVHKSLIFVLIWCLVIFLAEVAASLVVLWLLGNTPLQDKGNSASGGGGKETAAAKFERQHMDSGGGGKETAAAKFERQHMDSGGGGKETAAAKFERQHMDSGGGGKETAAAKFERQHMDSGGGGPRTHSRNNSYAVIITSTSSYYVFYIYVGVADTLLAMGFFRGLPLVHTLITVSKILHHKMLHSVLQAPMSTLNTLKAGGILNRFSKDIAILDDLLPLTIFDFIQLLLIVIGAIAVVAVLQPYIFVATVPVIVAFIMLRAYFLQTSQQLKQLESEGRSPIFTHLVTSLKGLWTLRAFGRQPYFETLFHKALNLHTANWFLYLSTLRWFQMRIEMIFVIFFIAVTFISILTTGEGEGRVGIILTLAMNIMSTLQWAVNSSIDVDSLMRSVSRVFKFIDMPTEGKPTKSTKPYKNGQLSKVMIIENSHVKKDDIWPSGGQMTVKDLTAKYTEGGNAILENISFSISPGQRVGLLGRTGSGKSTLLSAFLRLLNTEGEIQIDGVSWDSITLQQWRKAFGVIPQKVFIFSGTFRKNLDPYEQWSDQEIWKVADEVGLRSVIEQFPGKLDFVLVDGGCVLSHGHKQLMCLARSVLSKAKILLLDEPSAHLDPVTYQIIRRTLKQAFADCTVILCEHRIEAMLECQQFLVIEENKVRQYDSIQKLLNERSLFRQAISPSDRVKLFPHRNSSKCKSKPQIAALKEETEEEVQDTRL", "test": "Immunofluorescence labeling using polyclonal S-tag antibody", "conditions": "varying doses, FIG. 11"}, "[2]": {"biological_target": "T1, 4S-ΔF508 CFTR", "test": "FACS assay measuring S-tag epitopes at the cell surface with a polyclonal antibody", "conditions": "for surface expression of CFTR (FACS): different concentrations, 1 or 2 days, with or without induction of 4S tag delta F508 expression, compared with 28° C. positive control", "source_text": "The library was screened against 4S-ΔF508 CFTR expressing CHO cells using the assay described in Example 2 above. Each of these compounds was retested using an FACS assay to measure S-tag epitopes at the cell surface with a polyclonal antibody, as shown in FIG. 8."}, "[3]": {"biological_target": "T1, 4S-ΔF508 CFTR", "test": "RNAase S complementation screening assay on 4S-ΔF508 CFTR expressing CHO cells", "conditions": "LOPAC1280 library screen", "procedure": "Optimize conditions for homogeneous cell-based assay for ΔF508-CFTR rescue. Surface detection of S-protein tagged CFTR used reconstitution of RNAase S activity and detection with the fluorogenic probe 6-F-dArUdAdA-6-TMR.\nScreening was carried out on a customized apparatus (SAGIAN, Beckman) containing a 3-m rail Optimized Robot for Chemical Analysis that integrates the following robot-accessible instruments on a 4×2-m optical table: (a) SAGIAN 180 CO2 incubator, which holds 180 standard microplates in a storage carousel; (b) Elx405-Select plate washer with valve option and vacuum-sensing/waste alert for complex automated wash cycles; (c) SAGIAN MPS-8 CS incubator (holds eight standard microplates at 4-37±1° C.); […] SAGIAN shaker (six plate positions, frequency range 40-1100 rpm with variable amplitude); (e) Biomek 2000 liquid handling work station (installed with four positions to hold tip boxes with automatic air locks and six positions for microplates and liquid reservoirs, and MP 20 and MP 200 8-channel tip tools for liquid transfer); (f) SAGIAN carousel (holding 40 pipette tip boxes and 90 microplates); (g) SAGIAN bar code reader; (h) SAGIAN microplate lidding station with automatic vacuum control of six suction cups; (i) two FluoStar fluorescence plate readers (BMG Lab Technologies), each equipped with two-syringe pumps.\nData collection and analysis. […]"}, "[4]": {"biological_target": "T1, 4S-ΔF508 CFTR", "test": "Western blotting of CFTR expression in cells exposed to compound", "conditions": "FIG. 10"}}}
{"smiles": "O=C(/C=C/c1ccc(O)cc1)c1ccc(O)cc1O", "note": "[Compound 6, 4,2′,4′-trihydroxychalcone]", "values": [{"measurement": "expression by immunofluorescence labeling using polyclonal S-tag antibody", "setting": "[1]", "result": "increased expression"}, {"measurement": "activity in the rescreening assays", "setting": "[2]; FACS, S-tag epitopes at the cell surface", "result": "active"}, {"measurement": "surface expression of CFTR (FACS)", "setting": "[2]", "result": "significant, dose dependent increase"}, {"measurement": "surface expression of CFTR (FACS)", "setting": "[2]; listed as isoliquiritigenin", "result": "significant and dose-dependent upregulation"}, {"measurement": "activity in the assays of the invention", "setting": "[3]", "result": "active"}, {"measurement": "expression of the protein assessed by western blotting", "setting": "[4]", "result": "increased expression"}]}
